The values below come from patent EP0574781A2, “2-Amino-5-heterocyclic-substituted-1,4-benzodiazepines and their use in the treatment of aids” (priority 1992, dated 1993).

In this assay the target is T1, HIV-TAT (Human immunodeficiency virus type 1 group M subtype B, UniProt P04608).
T1 construct: expressed in transfected cells; host or cells: COS cells
Briefly: anti-HIV-TAT assay (SeAP reporter under HIV-LTR versus RSV-LTR in transfected COS cells). The assay is classed as cell-based. The following applies: specific inhibition 100 [(1-A/B) - (1-C/D)] of SeAP under HIV-LTR versus RSV-LTR, concentrations tested 1 to 50 /1.M, compound added 24 hours post transfection, assayed 48 hours after addition, average of at least three tests. On the procedure: The compounds of formula I were tested for anti-HIV-TAT activity in an assay described in US Patent No. 5070010, comprising the following steps: • (a) putting both the expression of the Secreted Alkaline Phosphatase (SeAP) gene and the viral trasactivator TAT gene under the control of the HIV promoter LTR responsive to the action of the HIV transactivator TAT; • (b) transfecting cultured mammalian cells with plasmids which contain the gene constructs of (a) above and cause cellular production of the trasactivating factor TAT ad SeAP; • (c) adding the agent to be tested, here the compounds of formula I; and determining the amount of SeAP produced, by measuring SeAP enzymatic activity, whereby inhibition of SeAP production correlates with the anti-TAT inhibition activity.
In this assay, the inhibition of SeAP positively correlates with anti-TAT activity. The greater the ability of a agent to inhibit SeAP, the greater is its anti-TAT activity.
Specifically, with respect to the results reported below, the anti-HIV-TAT assay was run as follows: • At 24 hours post transfection 1, 10 and 50 /1.M of a test compound of formula I was added to the culture media of COS cells transfected with two plasmids, one containing the reporter gene which codes for SeAP under control of HIV-LTR, and the other containing the HIV-TAT gene also under control of HIV-LTR. […]
The anti-HIV-TAT activities of the test compounds were determined by measuring the amount of alkaline phosphatase in the supernatant media of cultures of cells in which SeAP gene expression was under the control of the HIV LTR promoter. The specific inhibitory activities of the test compounds were calculated according to the formula: 100 [(1-A/B) - (1-C/D)] where A and B are the alkaline phosphatase activites produced by HIV-LTR/SeAP in the presence and absence, respectively, of test compound, and C and D are the alkaline phosphatase activities produced by RSV-LTR/SeAP in the presence and absence, respectively, of test compound. […]

T1 sequence (P04608 whole entry): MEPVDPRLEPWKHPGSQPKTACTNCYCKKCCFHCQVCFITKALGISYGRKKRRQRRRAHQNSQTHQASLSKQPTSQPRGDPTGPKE

As to `CNC1=Nc2ccc(Cl)cc2C(c2cnn[nH]2)=NC1` [Example 1, 7-chloro-N-methyl-5-(1H-1,2,3-triazol-5-yl)3H-1,4-benzodiazepin-2-amine], the Anti-HIV-TAT activity result was “High (High is >60% inhibition)”.
For the compound `CNC1=Nc2ccc(Cl)cc2C(c2cn[nH]c2)=NC1` [Example 2, 7-chloro-N-methyl-5-(1 H-pyrazol-4-yl)-3H-1,4-benzodiazepin-2-amine], the Anti-HIV-TAT activity entry is given as “High/Medium”.
On to `CNC1=Nc2ccc(C)cc2C(c2cn[nH]c2)=NC1` [Example 3, N,7-Dimethyl-5-(1 H-pyrazol-4-yl)-3H-1,4-benzodiazepin-2-amine], for which the Anti-HIV-TAT activity entry was “High/Medium”.
